{"source": "patent US4071408A", "about": "“Neuraminidase” (Research Corporation, priority 1976, dated 1978)", "system": "Arthrobacter sialophilum neuraminidase (NANAase, E.C.3.2.1.18), purified extracellular enzyme", "test": "Neuraminidase kinetics and effector tests (release of N-acetylneuraminic acid, citrate-phosphate buffer pH 6.0, 37° C.)", "format": "biochemical", "experimental": "Neuraminidase and related assays. The activity of enzyme preparations was determined as follows: A reaction mixture containing 40 μmols of citrate-phosphate buffer, pH 6.0, 1.0 mg of Collocalia mucoid and the enzyme fraction in a final volume of 0.50 ml was incubated at 37° C. Aliquots of 0.20 ml were withdrawn at 5 and 10 minutes, and the N-acetylneuraminic acid determined. In all experiments, zero time points were run for each extract. A unit of enzyme activity is defined as that amount which releases 1 μmol of N-acetylneuraminic acid per minute from the mucoid preparation, under conditions of the standard assay given above. Specific activity is expressed as units/mg of protein. Protein was determined with crystalline bovine serum albumin as standard. N-acetylneuraminate pyruvatelyase assays were carried out.\nEnzyme characteristics. Enzyme activity increased linearly with concentration up to 0.28 mg/ml protein. The effect of pH on the activity was examined in citrate-phosphate buffer. A pH activity profile with Collocalia mucoid gave a broad optimum around 5-6. The Km values for Collocalia mucoid and N-acetylneuraminlactose were determined from the kinetic data given as inverse plots. […]", "note": "Where “and” joins values, the source holds several entries; their conditions need not be identical. Identical values can stand only once.", "data": [{"compound": "N-acetylneuraminlactose", "values": [{"measurement": "Km", "setting": "apparent Km from inverse plots of kinetic data, purified enzyme, read-out: Km for N-acetylneuraminlactose", "value": "~3.3 mM and 3.3 mM"}]}, {"compound": "O=C(O)CN(CCN(CC(=O)O)CC(=O)O)CC(=O)O", "note": "[EDTA]", "values": [{"measurement": "effect of EDTA on neuraminidase activity", "setting": "EDTA between 10^-3 M and 10^-2 M, included in the assay mixture or preincubated with the enzyme for 30 min at 37° C.", "value": "no effect"}]}]}
